In paper PMC12738789, “Synthesis of an enhanced nanobiocatalyst system from Aspergillus niger as single green source” (Scientific Reports, 2025):

System: T1, Aspergillus niger ATCC 16,878 lipase
T1 construct: gene lipA
Assay: spectrophotometric p-nitrophenol release at […] nm, nonlinear Michaelis-Menten fit
Type: biochemical
Settings: free enzyme; 0.1-1 mM pNPP; standard assay 0.1 M potassium phosphate pH 7.5, 37 °C, 2% Triton X-100

Km: 147 µM
SMILES: CCCCCCCCCCCCCCCC(=O)Oc1ccc([N+](=O)[O-])cc1 [4-nitrophenyl palmitate]
